From US20190047966A1, “NOVEL COMPOUND AND PHARMACOLOGICALLY ACCEPTABLE SALT THEREOF” (MEIJI SEIKA PHARMA CO., LTD., priority 2016, published 2019)
Structures can show the parent of a compound that is named as a salt.

Assays:
[1] = target: T1, human histamine H1 receptor (Homo sapiens, UniProt P35367); test: Evaluation of Human H1 Receptor Function (GeneBLAzer H1-NFAT-bla HEK 293T cells); type: cell-based; settings: histamine 30 nM, read-out: Evaluation of H1 Receptor Function (IC50 value, antagonistic effect)
T1 sequence (P35367 whole entry): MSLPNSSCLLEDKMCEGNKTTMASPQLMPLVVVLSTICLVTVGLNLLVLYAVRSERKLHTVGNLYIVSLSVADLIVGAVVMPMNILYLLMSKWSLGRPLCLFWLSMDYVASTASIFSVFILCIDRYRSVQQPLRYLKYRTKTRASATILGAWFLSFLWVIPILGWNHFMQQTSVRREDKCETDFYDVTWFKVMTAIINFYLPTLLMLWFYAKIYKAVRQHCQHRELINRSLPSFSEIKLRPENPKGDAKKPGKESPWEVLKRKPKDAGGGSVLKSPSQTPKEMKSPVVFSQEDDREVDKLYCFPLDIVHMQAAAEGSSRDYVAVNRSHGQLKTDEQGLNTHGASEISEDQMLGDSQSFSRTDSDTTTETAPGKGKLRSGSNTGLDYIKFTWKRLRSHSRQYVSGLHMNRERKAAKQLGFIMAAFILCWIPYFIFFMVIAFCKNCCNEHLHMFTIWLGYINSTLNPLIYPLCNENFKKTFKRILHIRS
Protocol: Test Example 3: Evaluation of Human H1 Receptor Function
The antagonistic effect was evaluated by the method described below. GeneBLAzer® H1-NFAT-bla HEK 293T-cells (Invitrogen Corporation, recombinant cells expressing the human histamine H1 receptor) were incubated at 37° C. for 30 minutes in the presence of the test compounds dissolved in DMSO in a high glucose Dulbecco's Modified Eagle Medium (GlutaMAX, containing 10% fetal bovine serum, 100 μM nonessential amino acids, 25 mM HEPES, 100 U/mL penicillin, and 100 μg/mL streptomycin), and histamine was added such that the final concentration became 30 nM, followed by further incubation for 4.5 hours. Then, a mixture of LiveBLAzer™ FRET-B/G Loading Kit (Invitrogen Corporation) and Solution D (Invitrogen Corporation) was added, followed by leaving to stand at room temperature for 2 hours under shaded conditions. Thereafter, the fluorescence intensity was measured under two conditions of 400 nm/460 nm and 400 nm/535 nm (excitation light/fluorescence) by using a multilabel counter (EnVision: PerkinElmer Inc.). The 50% inhibitory concentration (IC50 value) was calculated in accordance with (measured value−blank measured value at 400 nm/460 nm)/(measured value−blank measured value at 400 nm/535 nm) of each test sample.

[2] = target: T1, human histamine H1 receptor; test: Evaluation of Human H1 Receptor Affinity ([3H]pyrilamine binding); set-up: purchased PerkinElmer Inc; host or cells: CHO-K1; settings: inhibition constant Ki, CHO-K1 membrane preparation
How it was run: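 Ki values are Cheng-Prusoff conversions of IC50 (Kd 1.1 nM) from radioligand displacement of 1.2 nM [3H]pyrilamine, with 1.0 μM pyrilamine defining nonspecific binding.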

[3] = target: T2, human histamine H4 receptor (Homo sapiens, UniProt Q9H3N8); test: Evaluation of Human H4 Receptor Affinity ([3H]histamine binding); settings: inhibition constant Ki, CHO-K1 membrane preparation, read-out: Evaluation of H4 Receptor Affinity
T2 construct: purchased PerkinElmer Inc; host or cells: CHO-K1
How it was run: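 Radioligand displacement: compound competes with 8.2 nM [3H]histamine at recombinant human H4 receptor in CHO-K1 membranes (Tris-HCl 50 mM pH 7.4, EDTA 1.25 mM; 25 °C, 90 min), with filter-bound radioactivity counted. IC50 was converted to Ki via Cheng-Prusoff (Kd 5.7 nM); 1.0 μM histamine set nonspecific binding.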

[4] = target: T2, human histamine H4 receptor; test: Evaluation of H4 Receptor Function ([35S]GTPγS binding); type: biochemical; settings: [35S]GTPγS binding, CHO-K1 membrane, 0.1 μM histamine; read-out: Evaluation of H4 Receptor Function (IC50 value, antagonistic effect)
Protocol: The antagonistic effect was evaluated by the method described below. Membrane preparation from recombinant CHO-K1 cell expressing the human histamine H4 receptor (PerkinElmer Inc.), 10 μM GDP, 0.1 μM histamine, and the compounds dissolved in DMSO were reacted at 30° C. for 20 minutes in a buffering solution containing 20 mM HEPES, pH 7.4, 100 mM NaCl, 10 mM MgCl2, 1 mM DTT, and 1 mM EDTA on an assay plate. Thereafter, SPA beads (Amersham plc) were added, followed by incubation for 60 minutes, and further 0.3 nM [^35S]GTPγS (PerkinElmer Inc.) was added, followed by incubation for 30 minutes.

IC50 [1]	Ki [2]	Ki [3]	IC50 [4]	SMILES
< 200 nM	< 100 nM	< 100 nM	< 200 nM	CN1CCN(c2nc(N)nc3c2CCc2cc(OCc4ccsc4)ccc2-3)CC1 [Example 3, 4-(4-methylpiperazin-1-yl)-8-(thiophen-3-ylmethoxy)-5,6-dihydrobenzo[h]quinazolin-2-amine]
< 200 nM	< 100 nM	< 100 nM	< 200 nM	CN1CCN(c2nc(N)nc3c2Cc2ccc(OCc4ccccc4)cc2-3)CC1 [Example 201, 8-(benzyloxy)-4-(4-methylpiperazin-1-yl)-5H-indeno[1,2-d]pyrimidin-2-amine]
< 200 nM	< 100 nM	< 100 nM	< 200 nM	C[C@]1(C(=O)O)C[C@H](OCCN2CCN(c3nc(N)nc4c3CCc3cc(OCc5ccc(OC(F)(F)F)cc5)ccc3-4)CC2)C1 [Example 32, trans-3-(2-(4-(2-amino-8-((4-(trifluoromethoxy)benzyl)oxy)-5,6-dihydrobenzo[h]quinazolin-4-yl)piperazin-1-yl)ethoxy)-1-methylcyclobutane-1-carboxylic acid]
200 to 2000 nM	100 to 500 nM	< 100 nM	< 200 nM	CN(C)[C@H]1CCN(c2nc(N)nc3c2CCc2cc(OCc4ccccc4)ccc2-3)C1 [Example 102, (S)-8-(benzyloxy)-4-(3-(dimethylamino)pyrrolidin-1-yl)-5,6-dihydrobenzo[h]quinazolin-2-amine]
< 200 nM	< 100 nM	< 100 nM	< 200 nM	CN1CCN(c2nc(N)nc3c2CCc2cc(OCc4ccc(Cl)cc4)ccc2-3)CC1 [Example 1, 8-((4-chlorobenzyl)oxy)-4-(4-methylpiperazin-1-yl)-5,6-dihydrobenzo[h]quinazolin-2-amine]
	< 100 nM	100 to 500 nM		Nc1nc2c(c(N3CCN(CCOCCOc4nnn[nH]4)CC3)n1)CCc1cc(OCc3ccc(Cl)cc3)ccc1-2 [Example 115, 4-(4-(2-(2-((tetrazol-5-yl)oxy)ethoxy)ethyl)piperazin-1-yl)-8-((4-chlorobenzyl)oxy)-5,6-dihydrobenzo[h]quinazolin-2-amine dihydrochloride]
	100 to 500 nM	100 to 500 nM		CN1CCN(c2nc(N)nc3c2CCc2cc(OCc4ccccc4)ccc2-3)CC1CO (stereo not shown) [Example 106, (4-(2-amino-8-(benzyloxy)-5,6-dihydrobenzo[h]quinazolin-4-yl)-1-methylpiperazin-2-yl)methanol]
	< 100 nM	100 to 500 nM		COC(=O)c1ccc(COCCN2CCN(c3nc(N)nc4c3CCc3cc(OCc5ccc(Cl)cc5)ccc3-4)CC2)cc1 [128(a), methyl 4-((2-(4-(2-amino-8-((4-chlorobenzyl)oxy)-5,6-dihydrobenzo[h]quinazolin-4-yl)piperazin-1-yl)ethoxy)methyl)benzoate]
	< 100 nM	< 100 nM		COC(=O)c1cc(COCCN2CCN(c3nc(N)nc4c3CCc3cc(OCc5ccc(Cl)cc5)ccc3-4)CC2)ccc1F [17(a), methyl 5-((2-(4-(2-amino-8-((4-chlorobenzyl)oxy)-5,6-dihydrobenzo[h]quinazolin-4-yl)piperazin-1-yl)ethoxy)methyl)-2-fluorobenzoate]
	< 100 nM	< 100 nM		CN1CCCN(c2nc(N)nc3c2CCc2cc(NS(=O)(=O)c4ccc(OC(F)(F)F)cc4)ccc2-3)CC1 [Example 193, N-(2-amino-4-(4-methyl-1,4-diazepan-1-yl)-5,6-dihydrobenzo[h]quinazolin-8-yl)-4-(trifluoromethoxy)benzenesulfonamide bis(trifluoroacetate)]
	< 100 nM	< 100 nM		Nc1nc2c(c(N3CCN(CCOCC45C6C7C4C4C5C6C74C(=O)O)CC3)n1)CCc1cc(OCc3ccc(Cl)cc3)ccc1-2 (stereo not shown) [Example 151, 4-((2-(4-(2-amino-8-((4-chlorobenzyl)oxy)-5,6-dihydrobenzo[h]quinazolin-4-yl)piperazin-1-yl)ethoxy)methyl)pentacyclo[4.2.0.0^2.5.0^3.8.0^4.7]octane-1-carboxylic acid dihydrochloride]
	< 100 nM	< 100 nM		CN1CCN(c2nc(N)nc3c2CCc2cc(NS(=O)(=O)c4ccc(F)cc4)ccc2-3)CC1 [Example 50, N-(2-amino-4-(4-methylpiperazin-1-yl)-5,6-dihydrobenzo[h]quinazolin-8-yl)-4-fluorobenzenesulfonamide]
	< 100 nM	100 to 500 nM		CCOC(=O)C1CCC(O)(COCCN2CCN(c3nc(N)nc4c3CCc3cc(OCc5ccc(Cl)cc5)ccc3-4)CC2)CC1 (stereo not drawn) [166(a), ethyl cis- or trans-4-((2-(4-(2-amino-8-((4-chlorobenzyl)oxy)-5,6-dihydrobenzo[h]quinazolin-4-yl)piperazin-1-yl)ethoxy)methyl)-4-hydroxycyclohexane-1-carboxylate]
	< 100 nM	< 100 nM		C[C@]1(C(=O)O)C[C@H](OCCN2CCN(c3nc(N)nc4c3CCc3cc(OCc5ccc(Cl)cc5)ccc3-4)CC2)C1 [25(b), trans-3-(2-(4-(2-amino-8-((4-chlorobenzyl)oxy)-5,6-dihydrobenzo[h]quinazolin-4-yl)piperazin-1-yl)ethoxy)-1-methylcyclobutane-1-carboxylic acid]
	100 to 500 nM	< 100 nM		CN(C)[C@@H]1CCN(c2nc(N)nc3c2CCc2cc(OCc4ccccc4)ccc2-3)C1 [Example 103, (R)-8-(benzyloxy)-4-(3-(dimethylamino)pyrrolidin-1-yl)-5,6-dihydrobenzo[h]quinazolin-2-amine]
	< 100 nM	100 to 500 nM		COC(=O)c1ccc(F)c(COCCN2CCN(c3nc(N)nc4c3CCc3cc(OCc5ccc(Cl)cc5)ccc3-4)CC2)c1 [129(a), methyl 3-((2-(4-(2-amino-8-((4-chlorobenzyl)oxy)-5,6-dihydrobenzo[h]quinazolin-4-yl)piperazin-1-yl)ethoxy)methyl)-4-fluorobenzoate]
	< 100 nM	100 to 500 nM		Nc1nc2c(c(N3CCN(CCOC[C@H]4C[C@H](C(=O)O)O4)CC3)n1)CCc1cc(OCc3ccc(OC(F)(F)F)cc3)ccc1-2 (relative stereo) [Example 177, trans-4-((2-(4-(2-amino-8-((4-(trifluoromethoxy)benzyl)oxy)-5,6-dihydrobenzo[h]quinazolin-4-yl)piperazin-1-yl)ethoxy)methyl)oxetane-2-carboxylic acid]
	100 to 500 nM	100 to 500 nM		CN1CCN(c2nc(N)nc3c2CCc2cc(NS(=O)(=O)c4ccc(C#N)cc4)ccc2-3)CC1 [Example 47, N-(2-amino-4-(4-methylpiperazin-1-yl)-5,6-dihydrobenzo[h]quinazolin-8-yl)-4-cyanobenzenesulfonamide]
	< 100 nM	100 to 500 nM		Nc1nc2c(c(N3CCN(CCCCn4cc(C(=O)O)cn4)CC3)n1)CCc1cc(OCc3ccc(Cl)cc3)ccc1-2 [Example 132, 1-(4-(4-(2-amino-8-((4-chlorobenzyl)oxy)-5,6-dihydrobenzo[h]quinazolin-4-yl)piperazin-1-yl)butyl)-1H-pyrazole-4-carboxylic acid dihydrochloride]
	< 100 nM	< 100 nM		CC(Oc1ccc2c(c1)CCc1c-2nc(N)nc1N1CCN(CCO[C@H]2C[C@@H](C(=O)O)C2)CC1)c1ccc(OC(F)(F)F)cc1 (relative stereo) [Example 209, cis-3-(2-(4-(2-amino-8-(1-(4-(trifluoromethoxy)phenyl)ethoxy)-5,6-dihydrobenzo[h]quinazolin-4-yl)piperazin-1-yl)ethoxy)cyclobutane-1-carboxylic acid]
	< 100 nM	100 to 500 nM		Nc1nc2c(c(N3CCN(CCOCCOCCN4C(=O)c5ccccc5C4=O)CC3)n1)CCc1cc(OCc3ccc(Cl)cc3)ccc1-2 [Example 112, 2-(2-(2-(2-(4-(2-amino-8-((4-chlorobenzyl)oxy)-5,6-dihydrobenzo[h]quinazolin-4-yl)piperazin-1-yl)ethoxy)ethoxy)ethyl)isoindoline-1,3-dione]
